Assays:
Assay type in all cases: physicochemical
[1] = Lipid nanoparticle size and polydispersity by dynamic light scattering; conditions: LNP of lipid/DSPC/cholesterol/PEG-lipid 50:10:38.5:1.5 encapsulating hEPO mRNA
Method in brief: (§1)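 LNPs made from ionizable lipid/DSPC/cholesterol/PEG-lipid (50:10:38.5:1.5) and mRNA in citrate pH 4 by microfluidic mixing, lipid:mRNA about 10:1–30:1 w/w, then dialysed into DPBS and filtered. Size and PDI measured by DLS in backscatter mode; encapsulation efficiency measured by RiboGreen assay.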

[2] = Apparent pKa of LNP formulations, TNS fluorescence assay; conditions: LNP cationic lipid/DSPC/cholesterol/DMG-PEG 50/10/38.5/1.5 mol %
Method in brief: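 LNPs (cationic lipid/DSPC/cholesterol/DMG-PEG 50/10/38.5/1.5 mol %) diluted to 0.1 mg/mL total lipid in citrate/phosphate/borate/NaCl buffers spanning pH 3–9 with TNS. Fluorescence (ex 325, em 435 nm) read at room temperature; pKa taken as the pH at half-maximal intensity from sigmoidal fit.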

[3] = Encapsulation efficiency of lipid nanoparticles, Quant-it Ribogreen RNA assay; conditions: LNP of lipid/DSPC/cholesterol/PEG-lipid 50:10:38.5:1.5 encapsulating hEPO mRNA
Method in brief: as §1

| polydispersity [1] | size (nm) [1] [nm] | Apparent Pka [2] | Encapsulation Efficiency [3] [%] | SMILES |
| --- | --- | --- | --- | --- |
| 0.093 | 60.57 | 6.539 | 92.31 | CCCCCCCCCCCOC(=O)CCCCCN(CCN(CCO)CCCCCOC(=O)OCC(CCCCCCCC)CCCCCCCC)C1CCCCC1 [Compound 128] |
| 0.037 | 66.29 | 6.298 | 91.0 | CCCCCCCCCCCOC(=O)CCCCCN(CCN(CCO)CCCCCC(=O)OCC(CCCCCCCCCC)CCCCCCCCCC)C1CCCCC1 [Compound 47] |
| 0.085 | 111.8 | 6.738 | 86.80 | CCCCCCCCCCCNC(=O)CCCCCN(CCN(CCO)CCCCC(COC(=O)CCCCCCC)COC(=O)CCCCCCC)C1CCC1 [Compound 188] |
| 0.09 | 99.97 | 6.862 | 91.00 | CCCCCCCCCCCOC(=O)CCCCCN(CCN(CCO)CCCCC(COC(=O)CCCCCCC)COC(=O)CCCCCCC)C1CCC1 [Compound 182] |
| 0.121 | 55.62 | 6.411 | 93.22 | CCCCCCCCCCCOC(=O)CCCCCN(CCN(CCO)CCCCCC(=O)OCC(CCCCCCCC)CCCCCCCC)C1CCCCCC1 [Compound 107] |
| 0.235 | 59.59 | 5.786 | 93.4 | CCCCCCCCCCCOC(=O)CCCCCN(CCN(CCO)CCCCCC(=O)OCC(CCCCCCCC)CCCCCCCC)C1CC(F)(F)C1 [Compound 50] |
| 0.061 | 58.34 | 6.448 | 90.26 | CCCCCCCCCCCC(=O)OCCCCCN(CCN(CCO)CCCCCOC(=O)CC(CCCCCCCC)CCCCCCCC)C1CCCCCC1 [Compound 94] |
| 0.051 | 89.46 | 6.742 | 89.65 | CCCCCCCCC(CCCCCC)CNC(=O)CCCCCCN(CCO)CCN(CCCCC(COC(=O)CCCCCCC)COC(=O)CCCCCCC)C1CCCC1 (centres unmarked) [Compound 230] |
| 0.228 | 80.39 | 6.666 | 84.30 | CCCCCCCCC(CCCCCC)COC(=O)CCCCCN(CCCCN(CCO)CCCCC(COC(=O)CCCCCCC)COC(=O)CCCCCCC)C1CCCCCC1 (centres unmarked) [Compound 193] |

More lines, now with the values behind:

| SMILES | polydispersity [1] | size (nm) [1] [nm] | Apparent Pka [2] | Encapsulation Efficiency [3] [%] |
| --- | --- | --- | --- | --- |
| CCCCCCCCC(CCCCCCCC)CNC(=O)CCCCCN(CCO)CCN(CCCCCC(=O)NCC(CCCCCCCC)CCCCCCCC)C1CCCC1 [Compound 12] | 0.062 | 58.17 | 6.685 | 89.5 |
| CCCCCCCCC(CCCCCCCC)COC(=O)CCCCCN(CCO)CCN(CCCCCC(=O)OCC(CCCCCCCC)CCCCCCCC)Cc1ccc([N+](=O)[O-])cc1 [Compound 38] | 0.092 | 54.42 | 6.253 | 89.8 |
| CCCCCCCCC(CCCCCC)CNC(=O)CCCCCN(CCOCCO)CCN(CCCCC(COC(=O)CCCCCCC)COC(=O)CCCCCCC)C1CCCC1 (centres unmarked) [Compound 205] | 0.023 | 104.3 | 6.917 | 81.79 |
| CCCCCCCCC(CCCCCC)CNC(=O)CCCCN(CCO)CCN(CCCCC(COC(=O)CCCCCCC)COC(=O)CCCCCCC)C1CCCC1 (centres unmarked) [Compound 227] | 0.048 | 83.54 | 6.872 | 91.70 |
| CCCCCCCCC(CCCCCC)CNC(=O)CCCCCN(CCOCCO)CCN(CCCCC(COC(=O)CCCCCCC)COC(=O)CCCCCCC)C1CCCCCCC1 (centres unmarked) [Compound 208] | 0.053 | 85.95 | 6.691 | 86.63 |
| CCCCCCCCC(=O)OCC(CCCCN(CCO)CCN(CCCCC(COC(=O)CCCCCCCC)COC(=O)CCCCCCCC)C1CCC1)COC(=O)CCCCCCCC [Compound 166] | 0.092 | 75.12 | 6.513 | 92.85 |
| CCCCCCCCC(CCCCCCCC)COC(=O)CCCCCN1CCC(N(CCO)CCCCCC(=O)OCC(CCCCCCCC)CCCCCCCC)CC1 [Compound 170] | 0.09 | 74.62 | 6.269 | 96.0 |
| CCCCCCCCC(CCCCCCCC)COC(=O)CCCCCN(CCC)CCN(CCO)CCCCCC(=O)OCC(CCCCCCCC)CCCCCCCC [Compound 32] | 0.04 | 57.09 | 6.378 | 92.1 |
| CCCCCCCCC(CCCCCCCC)CNC(=O)CCCCCN(CC=C(C)C)CCN(CCO)CCCCCC(=O)NCC(CCCCCCCC)CCCCCCCC [Compound 122] | 0.066 | 65.77 | 6.817 | 93.47 |
| CCCCCCCCC(CCCCCCCC)COC(=O)CCCCCN(CCN(CCCCCC(=O)OCC(CCCCCCCC)CCCCCCCC)C1CCC(O)CC1)C1CCC1 (centres unmarked) [Compound 55] | 0.071 | 83.97 | 5.951 | 95.6 |
| CCCCCCCCC(CCCCCCCC)COC(=O)CCCCCN(CCCCCN(CCO)CCCCC(COC(=O)CCCCCCC)COC(=O)CCCCCCC)C1CCC1 [Compound 187] | 0.083 | 88.82 | 6.226 | 94.26 |
| CCCCCCCCC(CCCCCCCC)COC(=O)/C=C/CN(CCO)CCN(CCCCCC(=O)OCC(CCCCCCCC)CCCCCCCC)C1CCC1 [Compound 63] | 0.044 | 87.84 | 6.147 | 93.93 |
| CCCCCCCCC(CCCCCC)COC(=O)CCCCCN(CCCCN(CCO)CCCCC(COC(=O)CCCCCCC)COC(=O)CCCCCCC)C1CCCCC1 (centres unmarked) [Compound 192] | 0.109 | 82.66 | 6.707 | 90.40 |
| CCCCCCCCOC(CCCCCN(CCO)CCN(CCCCCC(=O)NCC(CCCCCC)CCCCCCCC)C1CCCCCC1)OCCCCCCCC (centres unmarked) [Compound 202] | 0.042 | 84.35 | 6.738 | 88.47 |
| CCCCCCCCC(CCCCCCCC)COC(=O)CCCCCN(C)CCN(CCO)CCCCCC(=O)OCC(CCCCCCCC)CCCCCCCC [Compound 26] | 0.13 | 63.47 | 7.024 | 97.57 |
| CCCCCCCCC(CCCCCCCC)COC(=O)CCCCCN(CCO)CCN(CCCCCC(=O)OCC(CCCCCCCC)CCCCCCCC)C1CC(OC)C1 (centres unmarked) [Compound 67] | 0.023 | 75.57 | 5.980 | 95.1 |
| CCCCCCCCCCCOC(=O)CCOCCN(CCN(CCO)CCOCCC(=O)OCC(CCCCCCCC)CCCCCCCC)C1CCC1 [Compound 116] | 0.102 | 77.45 | 6.826 | 87.45 |

Source: patent US20230348362A1, “LIPID COMPOUNDS AND LIPID NANOPARTICLE COMPOSITIONS” (Suzhou Abogen Biosciences Co., Ltd., priority 2021, published 2023)
